Entries after “also recorded” stand apart in the source; their conditions may differ.
Experiments:
[1] = target: T1, membrane-associated CD73 of MDA-MB-231 cells (Homo sapiens, UniProt P21589); assay: Cell-based membrane-associated CD73 activity (AMP-Glo cell-based assay)
T1 construct: cell-based membrane-associated CD73 from MDA-MB-231 following AMP-Glo cell-based assay; endogenous in cells; host or cells: MDA-MB-231
T1 sequence (P21589 27-574): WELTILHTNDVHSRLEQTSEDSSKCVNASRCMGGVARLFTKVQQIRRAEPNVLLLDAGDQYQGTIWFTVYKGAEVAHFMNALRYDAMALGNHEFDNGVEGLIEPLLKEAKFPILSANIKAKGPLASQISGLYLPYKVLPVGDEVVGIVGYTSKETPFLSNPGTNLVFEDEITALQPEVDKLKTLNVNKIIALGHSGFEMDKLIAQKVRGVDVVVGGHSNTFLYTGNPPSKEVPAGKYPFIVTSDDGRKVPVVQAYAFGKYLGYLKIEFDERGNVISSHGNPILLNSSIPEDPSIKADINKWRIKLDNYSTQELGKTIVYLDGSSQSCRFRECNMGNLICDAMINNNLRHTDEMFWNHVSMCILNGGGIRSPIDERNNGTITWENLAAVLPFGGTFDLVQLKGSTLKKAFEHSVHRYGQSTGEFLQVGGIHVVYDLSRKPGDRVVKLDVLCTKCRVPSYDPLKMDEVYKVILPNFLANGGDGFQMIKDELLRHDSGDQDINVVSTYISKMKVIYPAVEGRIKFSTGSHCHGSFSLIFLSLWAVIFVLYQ
Experimental: • Adherent Cells preparation and assay protocol. Cells grown in 75cm^2 flasks were trypsinized and counted, and were diluted with full medium, and plated to a tissue culture grade solid white or clear bottom plate, at cell density of 25K cells in full medium (10% FBS and 1% Pen/Strep) per well, and kept overnight at 37°C in a 5% CO2 incubator. Fresh medium was added an hour before use by pipetting out ¾ volume of overnight medium from each well and replaced with a ¾ volume of fresh full growing medium. Cells were washed twice with HBSS by taking out whole medium from each well and replaced with fresh 100μl of HBSS to each well. […]
For CD73 activity using AMP as substrate, 25μl aliquots were withdrawn from each well at the desired time point and added to assay solid white plate (Corning Costar 3912 or equivalent) followed by the addition of 25μl of AMP-Glo™ Reagent I to each well, mixed well and incubated for 30min at 23°C.This was followed by the addition of 50μl per well of AMP-Glo™ Detection Solution (1ml of Kinase-Glo™ One Solution mixed with 10μl of AMP-Glo™ Reagent II), see AMP-Glo™ TM#384. This was followed by incubating the mixture for 60min at 23°C, before reading the plate using a luminometer. […]

[2] = test system: T2, cN-II (Human cytosolic 5'-Nucleotidase); assay: Enzyme activity of purified cytosolic cN-II (AMP-Glo assay); format: biochemical; settings: cN-II 0.6 mU/Rx, 10μM AMP, 37°C for 30 min
T2 construct: purchased NovoCIB SAS
Experimental: • 2 Determination of enzyme activity of purified cytosolic cN-II. Activity of purified cN-II (Human cytosolic 5'-Nucleotidase) was determined using 25μl reaction buffer (50mM HEPES, pH 7.0, 100mM KCl, 20mM MgCl2, 5mM DTT, 2.5mM dATP, and 0.1mg/ml BSA) containing enzyme and AMP substrate at 10μM (96-well format). Reaction continued at 37°C for 60 minutes or for a certain time period and terminated by the addition of equal volume (25μl) of AMP-Glo™ Reagent I. Reactions were mixed well and incubated for additional 30 min at 23°C. This was followed by the addition of 50 μl of AMP Detection Solution (10μl of AMP-Glo™ Reagent II per ml of Kinase-Glo® One Solution) and incubated for additional 60 min at 23°C before reading luminescence. • 3 Determination of enzyme activity of purified CD39. Activity of CD39 was determined using reaction buffer that contains 25mM Tris, pH 7.5, 5mM CaCl2, and 0.1mg/ml BSA), with 1μM to 5μM ATP or ADP as substrate, respectively. When ATP is used as a substrate, an equal volume of Kinase-Glo® One Solution was added to CD39 reactions and incubated for 15 min before reading luminescence using a luminometer. […] Reactions were mixed well and incubated for 60min before reading luminescence using luminometer. […]

Compound: Nc1ncnc2c1ncn2[C@@H]1O[C@H](COP(=O)(O)CP(=O)(O)O)[C@@H](O)[C@H]1O [AMP-CP, Adenosine 5'-(α, β-methylene) diphosphate]
- inhibition of membrane-associated CD73 activity ([1]; 50μM inhibitor, 25k MDA-MB-231 cells per well, 10μM AMP, 37°C, time course): inhibited
- IC50 ([1]; 25K cells per well, 5μM AMP, 90min at 37°C): 2100 nM
- inhibition of cN-II [2]: minimal or no inhibition; also recorded: no inhibition
